The record followed here is PMC6189370, “Olmutinib (BI1482694/HM61713), a Novel Epidermal Growth Factor Receptor Tyrosine Kinase Inhibitor, Reverses ABCG2-Mediated Multidrug Resistance in Cancer Cells” (Frontiers in Pharmacology, 2018).

As a reminder, the EC50 is the concentration giving half of the maximal effect. High values mean a need for much substance, low ones an effect from little substance.

This assay addresses T1, ABCG2 (Homo sapiens, UniProt Q9UNQ0).
T1 construct: membrane vesicles of High Five insect cells
T1 sequence (Q9UNQ0 1-655): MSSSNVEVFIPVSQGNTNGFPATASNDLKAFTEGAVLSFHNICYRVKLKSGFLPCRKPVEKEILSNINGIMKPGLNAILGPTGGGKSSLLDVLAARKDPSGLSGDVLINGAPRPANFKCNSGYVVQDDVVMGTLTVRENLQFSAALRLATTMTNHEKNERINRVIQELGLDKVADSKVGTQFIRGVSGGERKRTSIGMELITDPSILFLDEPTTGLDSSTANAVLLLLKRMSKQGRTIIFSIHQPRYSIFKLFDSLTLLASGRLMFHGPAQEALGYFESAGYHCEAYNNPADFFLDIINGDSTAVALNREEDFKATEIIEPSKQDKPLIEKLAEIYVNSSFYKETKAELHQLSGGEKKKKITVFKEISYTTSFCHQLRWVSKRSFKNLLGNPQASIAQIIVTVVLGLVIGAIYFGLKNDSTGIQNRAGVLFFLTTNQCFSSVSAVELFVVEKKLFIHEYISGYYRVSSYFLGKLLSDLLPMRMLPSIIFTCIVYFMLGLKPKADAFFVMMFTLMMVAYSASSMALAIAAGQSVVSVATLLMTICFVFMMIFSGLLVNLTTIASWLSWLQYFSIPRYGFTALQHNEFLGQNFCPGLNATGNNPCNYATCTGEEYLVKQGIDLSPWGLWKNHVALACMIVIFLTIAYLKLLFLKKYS
As to the kind of experiment: biochemical.

Consider `C=CC(=O)Nc1cccc(Oc2nc(Nc3ccc(N4CCN(C)CC4)cc3)nc3ccsc23)c1` [olmutinib], for which a half-maximal effect (EC50) was put at 2200 nM.
